Structures can show the parent of a compound that is named as a salt. Where a SMILES comes first, the peptide text is derived from it. [ ]: non-standard residue; d: D form. The star is where a group is joined. Sta = CC(C)C[C@H](N)[C@@H](O)CC(=O)O; Isovaleryl = CC(C)CC(=O)*
Columns and labels:
[1] = molecular target: T1, human renin (Homo sapiens, UniProt P00797); assay: human renin inhibition test in vitro (angiotensin I by radioimmunoassay); type: biochemical; details: human plasma, pH 7.4, 37° C., two hours
T1 construct: purchased National Institute for Biological Standards, London
T1 sequence (P00797 67-406): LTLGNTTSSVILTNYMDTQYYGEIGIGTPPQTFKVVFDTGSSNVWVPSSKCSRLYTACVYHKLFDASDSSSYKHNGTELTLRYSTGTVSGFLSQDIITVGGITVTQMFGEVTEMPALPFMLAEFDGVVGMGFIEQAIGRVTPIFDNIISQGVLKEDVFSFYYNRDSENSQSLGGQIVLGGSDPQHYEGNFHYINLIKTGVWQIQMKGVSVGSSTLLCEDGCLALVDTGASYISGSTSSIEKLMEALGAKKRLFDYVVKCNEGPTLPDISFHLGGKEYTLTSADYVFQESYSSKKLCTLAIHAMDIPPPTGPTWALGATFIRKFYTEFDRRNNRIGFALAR
Protocol: Compounds of Formula I were evaluated as inhibitors of human renin in an in vitro assay, as follows: This human renin inhibition test has been previously described in detail [Papaioannou et al., Clinical and Experimental Hypertension, A7(9), 1243-1257 (1985)]. Human renin was obtained from the National Institute for Biological Standards, London. An incubation mixture was prepared containing in a total volume of 0.25 mL 100 mM Tris-acetate buffer at pH 7.4, 25×10^-6 Goldblatt units of renin, 0.05 mL of plasma from human volunteers taking oral contraceptives, 6.0 mM sodium EDTA, 2.4 mM phenylmethyl sulfonyl fluoride, 1.5 mM 8-hydroxyquinoline, 0.4 mg/mL BSA, and 0.024 mg/mL neomycin sulfate. This mixture was incubated for two hours at 37° C. in the presence or absence of renin inhibitors. The produced angiotensin I was determined by radioimmunoassay (New England Nuclear kit). Test compounds to be assayed were solubilized in DMSO and diluted with 100 mM Tris-acetate buffer at pH 7.4 containing 0.5% bovine serum albumin (BSA) to the appropriate concentration. The final concentration of organic solvent in the reaction mixture was less than 1%. Control incubations at 37° C. were used to correct for effects of organic solvent on renin activity.

[2] = system: plasma renin; assay: oral activity in vivo in sodium depleted Marmoset monkeys, plasma renin activity; design: species or system Common marmosets (Callithrix jacchus); details: 1 h, 3 mg/kg dose
Protocol: The oral activity of compounds of Formula I was determined in vivo in Marmoset monkeys in accordance with the following procedure: Common marmosets (Callithrix jacchus, Charles River) were placed on a modified high protein low sodium diet (Purina, St. Louis, Mo,) for 1 to 2 weeks. On the day of the test an animal was anesthetized with isoflurane and cannulated in the femoral artery and vein for blood pressure monitoring, intravenous saralasin infusion and blood sampling. After allowing the animal to recover from surgery for 2 hr, saralasin was infused at 1 microgram/min for 15 minutes to confirm that the animal's blood pressure was dependent on angiotensin II levels. The marmoset was allowed to stabilize for 30 min after the saralasin infusion. The test compound was administered orally and blood pressure was monitored for 2 hr. Blood samples were taken in K-EDTA for plasma renin activity before, 30 min, and 1 hr after compound administration.

[3] = system: hog renin; details: after injection of hog renin into nephrectomized rats; Gross et al, Science, 175, 656 (1971); cited from earlier work
[4] = system: aspartyl proteases such as pepsin, cathepsin D and renin; details: Umezawa et al, J. Antibiot. (Tokyo), 23, 259-262 (1970); cited from earlier work

Row | SMILES | IC50 [1] [nM] | further results
1 | CNCCN(C)C(=O)O[C@@H](Cc1ccccc1)C(=O)N[C@@H](Cc1c[nH]cn1)C(=O)N[C@@H](CC1CCCCC1)[C@@H](O)[C@@H](O)CC(C)C [Example 10, O-{N-[2-(N-methylamino)ethyl]-N-methylaminocarbonyl}-3-L-phenyllactyl-L-histidineamide of (2S,3R,4S)-2-amino-1-cyclohexyl-3,4-dihydroxy-6-methylheptane] | 1.5 | % Reduction of Plasma Renin Activity [2]: 100%
2 | CC(C)C[C@H](O)[C@H](O)[C@H](CC1CCCCC1)NC(=O)[C@H](C)CNC(=O)[C@H](Cc1ccccc1)OC(=O)N(C)CCN(C)C(=O)OC(C)(C)C [Example 26] | 8.3 | 
3 | CC(C)CC(=O)N[C@H](C(=O)N[C@H](C(=O)N[C@@H](CC(C)C)[C@@H](O)CC(=O)N[C@@H](C)C(=O)N[C@@H](CC(C)C)[C@@H](O)CC(=O)O)C(C)C)C(C)C [pepstatin] (Isovaleryl-VV[Sta]A[Sta]-OH) |  | blood pressure in vivo [3]: reduce blood pressure in vivo; inhibition of aspartyl proteases [4]: inhibitor of aspartyl proteases such as pepsin, cathepsin D and renin
4 | CNCCCCN(C)C(=O)C[C@@H](CCc1ccccc1)C(=O)NC[C@@H](C)C(=O)N[C@@H](CC1CCCCC1)[C@@H](O)[C@@H](O)CC(C)C [Example 22, 3-{N-[4-(N-methylamino)butyl]-N-methyl-aminocarbonyl}-2-R-phenethyl-propionyl-α-(R)-methyl-β-alanineamide of (2S,3R,4S)-2-amino-1-cyclohexyl-3,4-dihydroxy-6-methylheptane] | 67 | 
5 | CC(C)C[C@H](O)[C@H](O)[C@H](CC1CCCCC1)NC(=O)[C@H](C)CNC(=O)[C@H](CCc1ccccc1)CC(=O)N(C)CCCCN(C)C(=O)OC(C)(C)C [Example 21] | 1350 | 
6 | CC(C)C[C@H](O)[C@H](O)[C@H](CC1CCCCC1)NC(=O)[C@H](C)CNC(=O)[C@@H](CC(=O)N(C)CCN(C)C)Cc1ccccc1 [Example 19] | 48 | 
7 | CNCCN(C)C(=O)O[C@@H](Cc1ccccc1)C(=O)N[C@@H](CC(C)C)C(=O)N[C@@H](CC1CCCCC1)[C@@H](O)[C@@H](O)CC(C)C [Example 11] | 7.7 | % Reduction of Plasma Renin Activity [2]: 100%

The next lines start with results.

Row | IC50 [1] [nM] | SMILES | further results
8 | 230 | CC(C)C[C@H](O)[C@H](O)[C@H](CC1CCCCC1)NC(=O)[C@H](C)CNC(=O)[C@H](CCc1ccccc1)OC(=O)N(C)CCN(C)C [Example 24] | 
9 | 1 | CC(C)C[C@H](O)[C@H](O)[C@H](CC1CCCCC1)NC(=O)[C@H](Cc1c[nH]cn1)NC(=O)[C@H](Cc1ccccc1)OC(=O)N(C)CCN(C)C [Example 8, O-{N-[2-(N,N-dimethylamino)ethyl]-N-methylaminocarbonyl}-3-L-phenyllactyl-L-histidineamide of (2S,3R,4S)-2-amino-1-cyclohexyl-3,4-dihydroxy-6-methylheptane] | % Reduction of Plasma Renin Activity [2]: 100%
10 | 170 | CC(C)C[C@H](O)[C@H](O)[C@H](CC1CCCCC1)NC(=O)[C@H](C)CNC(=O)[C@H](Cc1ccccc1)OC(=O)N(C)CCN(C)C [Example 18] | 
11 | 5.4 | CC(C)C[C@H](NC(=O)[C@H](Cc1ccccc1)OC(=O)N(C)CCN(C)C)C(=O)N[C@@H](CC1CCCCC1)[C@@H](O)[C@@H](O)CC(C)C [Example 15] | % Reduction of Plasma Renin Activity [2]: 79%
12 | 96 | CNCCN(C)C(=O)C[C@@H](CCc1ccccc1)C(=O)NC[C@@H](C)C(=O)N[C@@H](CC1CCCCC1)[C@@H](O)[C@@H](O)CC(C)C [Example 28, trifluoroacetate salt] | 
13 | 19 | CC(C)C[C@H](NC(=O)[C@H](Cc1ccccc1)OC(=O)N(CCN(C)C)C(C)C)C(=O)N[C@@H](CC1CCCCC1)[C@@H](O)[C@@H](O)CC(C)C [Example 20] | 
14 | 0.45 | CC(C)C[C@H](O)[C@H](O)[C@H](CC1CCCCC1)NC(=O)[C@H](Cc1c[nH]cn1)NC(=O)[C@H](Cc1ccccc1)OC(=O)N(C)CCN(C)C(=O)OC(C)(C)C [Example 23] | 
15 | 10 | CC(C)C[C@H](O)[C@H](O)[C@H](CC1CCCCC1)NC(=O)[C@H](C)CNC(=O)[C@H](CCc1ccccc1)CC(=O)N(C)CCN(C)C(=O)OC(C)(C)C [Example 25] | 
16 | 100 | CNCCN(C)C(=O)O[C@@H](Cc1ccccc1)C(=O)NC[C@@H](C)C(=O)N[C@@H](CC1CCCCC1)[C@@H](O)[C@@H](O)CC(C)C [Example 27] | 
